Tests used:
human iNOS = target: T1, human iNOS (Homo sapiens, UniProt P35228); assay: NOS inhibition, L-Arg to L-Cit conversion by HPLC with fluorescence detection; type: biochemical; conditions: at 1 μM
T1 construct: purchased Enzo Life Sciences, Inc. (New York, USA)
Protocol: (§1) The amidoxime 2 was evaluated for its in vitro NOS inhibitory activity, by measuring the conversion of L‐Arg to L‐Cit, using a validated HPLC method with fluorescence detection, as previously reported.[ ^39 , ^40 , ^41 ] The human nNOS and iNOS inhibition percent were calculated at 1 μM, while bovine eNOS inhibition was evaluated at 10 μM in order to have an assessment of compound selectivity toward eNOS. Considering the highly conserved primary sequence (>90 %) between the human and bovine eNOS, this latter extremely resembles the human isozyme. In particular, there is only one amino acid variation in a hydrophobic pocket that is on the outside of the heme active site. Therefore the different source of eNOS is usually well accepted and should not affect the inhibitor evaluation. ^[42]
(§2) Recombinant human iNOS and nNOS, were purchased from Enzo Life Sciences, Inc. (New York, USA), while bovine recombinant eNOS was purchased from Cayman Chemicals (Ann Arbor, Michigan, USA). HPLC analyses were performed using a Waters system composed of a P600 model pump, a 2475 multi‐fluorescence detector, and a 7725i model sample injector (Rheodyne, Cotati, CA, USA) equipped with a 5 μL loop. The column was a XTerra MS C8 (250×4.6 mm i.d., […]; Waters). A column thermostat oven module Igloo‐Cil (Cil Cluzeau Info Labo, France) was used. Chromatograms were recorded on a Fujitsu Siemens Esprimo computer and data were processed by the Empower Pro software (Waters). The appropriate mobile phase was prepared daily, filtered through a 0.45 μm WTP membrane (Whatman, Maidstone, UK), sonicated and degassed before use. Column temperature was kept constant at 20 °C. All assays were performed in triplicate.
(§3) Enzymes were diluted in 2‐[4‐(2‐hydroxyethyl)piperazin‐1‐yl]ethanesulfonic acid (HEPES) buffer (pH 7.4) to obtain iNOS and nNOS 2.5 μg/mL stock solutions, and eNOS 300 μg/mL stock solution. To measure iNOS activity, 10 μL of iNOS stock solution were added to 80 μL of HEPES buffer at pH 7.4, containing 0.1 mM CaCl2, 1 mM D,L‐dithiothreitol (DTT), 0.5 mg/mL bovine serum albumin (BSA), 10 μM flavin mononucleotide (FMN), 10 μM flavin adenine dinucleotide (FAD), 30 μM tetrahydrobiopterin (BH4), 10 μg/mL calmodulin (CaM) and 10 μM L‐Arg. To measure eNOS and nNOS activities, 25 μL of enzyme stock solution were added to 75 μL of HEPES buffer pH 7.4, containing 2 mM CaCl2, 1 mM DTT, 0.5 mg/mL BSA, 10 μM FMN, 10 μM FAD, 30 μM BH4, 10 μg/mL CaM and 10 μM L‐Arg. Then, 10 μL of a 10 μM (iNOS and nNOS assay) or 100 μM (eNOS assay) solution of the test compound was added to the enzyme assay solution, followed by pre‐incubation of 15 min at 37 °C. The reaction was initiated by the addition of 10 μL of nicotinamide adenine dinucleotide phosphate (NADPH) 7.5 mM (iNOS) or 10 mM (eNOS and nNOS), carried out at 37 °C for 20 min, and stopped by adding 500 μL of ice‐cold CH3CN. The mixture was brought to dryness under vacuum and eventually stored at −20 °C, before the fluorescence derivatization. The o‐phthalaldehyde‐N‐acetylcysteine (OPA/NAC) reagent for fluorescence derivatization was prepared with the molar ratios of 1 : 3, reacting 5 mL of methanolic OPA solution and 20 mL of 0.2 M borate buffer containing 0.1 g of NAC for 90 min to final pH 9.3±0.05. The OPA/NAC solution was stored at 4 °C and saved for no longer than seven days. […] The fluorescence reaction is realized stirring 190 μL of supernatant and 60 μL of OPA/NAC solution for 5 min. […]

human nNOS = target: T2, human nNOS (Homo sapiens, UniProt P29475); assay: as above; type: biochemical; conditions: read-out: nNOS enzymatic inhibition
T2 construct: purchased Enzo Life Sciences, Inc. (New York, USA)
Protocol: as §1, §2, §3

bovine eNOS = target: T3, bovine eNOS (Bos taurus, UniProt P29473); assay: as above; type: biochemical; conditions: at 10 μM
T3 construct: purchased Cayman Chemicals (Ann Arbor, Michigan, USA)
Protocol: as §1, §2, §3

pepsin, pancreatin = assay: Enzymatic stability in simulated fluids with pepsin or pancreatin; type: in vitro ADME; conditions: 37 °C, 2 h
Protocol: The effects of gastrointestinal digestion are important parameters to be taken into consideration in the determination of bioavailability and bioactivity of new compounds. In particular, the luminal instability, due to the pH or enzymatic degradation, may compromise the transmucosal transport of the prodrug designed for permeability enhancement. Therefore, in this study the chemical stability of compound 2 was assessed to exclude any undesirable degradation at acid and physiological environments. Hydrochloric acid buffer (pH 2.0) as a nonenzymatic simulated gastric fluid (SGF), and phosphate buffer (pH 7.4) as nonenzymatic simulated intestinal fluid (SIF) were employed to evaluate the chemical stability. […] For chemical stability, a 0.01 M hydrochloric acid buffer (pH 1.3) and 0.01 M phosphate buffer (pH 7.4) were used. To assess enzymatic stability, the same hydrochloric buffer with and without pepsin (10 or 40 mg/mL) and phosphate buffer with and without pancreatin (10 or 40 mg/mL) were used. […] The mixture was vortexed and centrifuged at 2 °C and 10 000 rpm, Swing‐out Rotor, for 10 min, and the content of tested compound in the supernatant was analyzed by HPLC. Experiments were run in triplicate and the mean values of the rate constants were calculated.

## C/C(=N\O)NC(c1ccccc1)c1ccccc1 [Compound 2, (1E)‐N‐(diphenylmethyl)‐N′‐hydroxyethanimidamide]
other
  melting point: 112 to 115 °C
Human iNOS
  iNOS inhibition (in words): not able to inhibit
Human iNOS; listed as amidoxime
  iNOS inhibition (in words): inactivity
Human nNOS
  inhibition at 1 µM: 53%
Bovine eNOS
  eNOS inhibition (in words): not able to inhibit
Bovine eNOS; listed as amidoxime
  eNOS inhibition (in words): inactivity
pepsin, pancreatin; pH 1.3, pepsin 10 or 40 mg/mL
  enzymatic stability in SGF with pepsin: stable
pepsin, pancreatin; pH 7.4, pancreatin 10 or 40 mg/mL
  enzymatic stability in SIF with pancreatin: stable
